Measured values from the NIST ThermoML archive (doi:10.1021/je060203o).
Numbers after ± are expanded uncertainties.

Settings: Liquid; for speed of sound: Pulse-echo method; for mass density: Vibrating tube method

CCCn1cc[n+](C)c1.O=S(=O)([N-]S(=O)(=O)C(F)(F)F)C(F)(F)F
Settings | mass density [kg/m3] | speed of sound [m/s]
318.15 K, 10000 kPa | – | 1225.2 ± 3.1
318.15 K, 10020 kPa | 1464.41 ± 2.7 | –
318.15 K, 13500 kPa | – | 1236.8 ± 3.1
318.15 K, 14980 kPa | 1467.91 ± 2.9 | –
318.15 K, 17000 kPa | – | 1248.2 ± 3.1
318.15 K, 19750 kPa | 1471.3 ± 3 | –
318.15 K, 20000 kPa | – | 1257.7 ± 3.1
318.15 K, 25860 kPa | 1475.51 ± 3.2 | –
318.15 K, 30000 kPa | – | 1288.7 ± 3.2
318.15 K, 31480 kPa | 1479.58 ± 3.3 | –
318.15 K, 37770 kPa | 1483.63 ± 3.5 | –
318.15 K, 40000 kPa | – | 1317.8 ± 3.2
318.15 K, 44170 kPa | 1487.95 ± 3.7 | –
318.15 K, 50000 kPa | – | 1345.7 ± 3.2
318.15 K, 50750 kPa | 1492.22 ± 3.9 | –
318.15 K, 59590 kPa | 1498.46 ± 4.1 | –
318.15 K, 60000 kPa | – | 1372.2 ± 3.2
318.15 K, 70000 kPa | – | 1397.8 ± 3.2
318.15 K, 80000 kPa | – | 1422.3 ± 3.2
318.15 K, 90000 kPa | – | 1446.3 ± 3.2
318.15 K, 100000 kPa | – | 1468.9 ± 3.2
318.15 K, 112500 kPa | – | 1496.5 ± 3.2
318.15 K, 125000 kPa | – | 1523.2 ± 3.2
318.15 K, 137510 kPa | – | 1548.4 ± 3.2
318.15 K, 150000 kPa | – | 1572.9 ± 3.2
318.15 K, 162500 kPa | – | 1596.6 ± 3.2
318.15 K, 175000 kPa | – | 1620 ± 3.2
318.15 K, 187500 kPa | – | 1642.7 ± 3.2
318.15 K, 200000 kPa | – | 1664.6 ± 3.2
323.15 K, 100 kPa | 1451.66 ± 2.5 | –
323.15 K, 1830 kPa | 1452.94 ± 2.5 | –
323.15 K, 10020 kPa | 1459.11 ± 2.7 | –
323.15 K, 14980 kPa | 1462.75 ± 2.9 | –
323.15 K, 19750 kPa | 1466.15 ± 3 | –
323.15 K, 25860 kPa | 1470.44 ± 3.1 | –
323.15 K, 31480 kPa | 1474.24 ± 3.3 | –
323.15 K, 37770 kPa | 1478.57 ± 3.5 | –
323.15 K, 44170 kPa | 1482.86 ± 3.6 | –
323.15 K, 50750 kPa | 1487.24 ± 3.8 | –
323.15 K, 59590 kPa | 1493.03 ± 4.1 | –
325.15 K, 100 kPa | 1449.44 ± 2.5 | –
325.15 K, 1830 kPa | 1450.74 ± 2.5 | –
325.15 K, 10020 kPa | 1456.98 ± 2.7 | –
325.15 K, 14980 kPa | 1460.64 ± 2.8 | –
325.15 K, 19750 kPa | 1464.08 ± 3 | –
325.15 K, 25860 kPa | 1468.44 ± 3.1 | –
325.15 K, 31480 kPa | 1472.46 ± 3.3 | –
325.15 K, 37770 kPa | 1476.81 ± 3.5 | –
325.15 K, 44170 kPa | 1481.18 ± 3.6 | –
325.15 K, 50750 kPa | 1485.62 ± 3.8 | –
325.15 K, 59590 kPa | 1491.56 ± 4.1 | –
327.15 K, 100 kPa | 1447.19 ± 2.5 | –
327.15 K, 1830 kPa | 1448.52 ± 2.5 | –
327.15 K, 10020 kPa | 1454.88 ± 2.7 | –
327.15 K, 14980 kPa | 1458.57 ± 2.8 | –
327.15 K, 19750 kPa | 1461.98 ± 3 | –
327.15 K, 25860 kPa | 1466.38 ± 3.1 | –
327.15 K, 31480 kPa | 1470.37 ± 3.3 | –
327.15 K, 37770 kPa | 1474.75 ± 3.4 | –
327.15 K, 44170 kPa | 1479.18 ± 3.6 | –
327.15 K, 50750 kPa | 1483.65 ± 3.8 | –
327.15 K, 59590 kPa | 1489.6 ± 4.1 | –
328.15 K, 500 kPa | – | 1170.9 ± 3.1
328.15 K, 3500 kPa | – | 1181.8 ± 3.1
328.15 K, 7000 kPa | – | 1194.2 ± 3.1
328.15 K, 10000 kPa | – | 1204.7 ± 3.1
328.15 K, 13500 kPa | – | 1216.4 ± 3.1
328.15 K, 17000 kPa | – | 1228 ± 3.1
328.15 K, 20000 kPa | – | 1237.7 ± 3.1
328.15 K, 30000 kPa | – | 1269.2 ± 3.2
328.15 K, 40000 kPa | – | 1299.1 ± 3.2
328.15 K, 50000 kPa | – | 1327.3 ± 3.2
328.15 K, 60000 kPa | – | 1354.2 ± 3.2
328.15 K, 70000 kPa | – | 1380.1 ± 3.2
328.15 K, 80000 kPa | – | 1405.1 ± 3.2
328.15 K, 90000 kPa | – | 1429.1 ± 3.2
328.15 K, 100000 kPa | – | 1452.2 ± 3.2
328.15 K, 112500 kPa | – | 1480.1 ± 3.2
328.15 K, 125000 kPa | – | 1506.9 ± 3.2
328.15 K, 137510 kPa | – | 1532.8 ± 3.2
328.15 K, 150000 kPa | – | 1557 ± 3.2
328.15 K, 162500 kPa | – | 1581.2 ± 3.2
328.15 K, 175000 kPa | – | 1604.6 ± 3.2
328.15 K, 187500 kPa | – | 1627.3 ± 3.2
328.15 K, 200000 kPa | – | 1649.6 ± 3.2
329.15 K, 100 kPa | 1444.85 ± 2.4 | –
329.15 K, 1830 kPa | 1446.17 ± 2.5 | –
329.15 K, 10020 kPa | 1452.55 ± 2.7 | –
329.15 K, 14980 kPa | 1456.27 ± 2.8 | –
329.15 K, 19750 kPa | 1459.81 ± 2.9 | –
329.15 K, 25860 kPa | 1464.24 ± 3.1 | –
329.15 K, 31480 kPa | 1468.26 ± 3.3 | –
329.15 K, 37770 kPa | 1472.67 ± 3.4 | –
329.15 K, 44170 kPa | 1477.09 ± 3.6 | –
329.15 K, 50750 kPa | 1481.63 ± 3.8 | –
329.15 K, 59590 kPa | 1487.58 ± 4 | –
331.15 K, 100 kPa | 1442.53 ± 2.4 | –
331.15 K, 1830 kPa | 1443.83 ± 2.5 | –
331.15 K, 10020 kPa | 1450.37 ± 2.7 | –
331.15 K, 14980 kPa | 1454.12 ± 2.8 | –
331.15 K, 19750 kPa | 1457.75 ± 2.9 | –
331.15 K, 25860 kPa | 1462.22 ± 3.1 | –
331.15 K, 31480 kPa | 1466.27 ± 3.2 | –
331.15 K, 37770 kPa | 1470.7 ± 3.4 | –
331.15 K, 44170 kPa | 1475.13 ± 3.6 | –
331.15 K, 50750 kPa | 1479.63 ± 3.8 | –
331.15 K, 59590 kPa | 1485.58 ± 4 | –
333.15 K, 100 kPa | 1440.12 ± 2.4 | –
333.15 K, 1830 kPa | 1441.48 ± 2.5 | –
333.15 K, 10020 kPa | 1448.04 ± 2.7 | –
333.15 K, 14980 kPa | 1451.88 ± 2.8 | –
333.15 K, 19750 kPa | 1455.51 ± 2.9 | –
333.15 K, 25860 kPa | 1460.01 ± 3.1 | –
333.15 K, 31480 kPa | 1464.11 ± 3.2 | –
333.15 K, 37770 kPa | 1468.58 ± 3.4 | –
333.15 K, 44170 kPa | 1473.05 ± 3.6 | –
333.15 K, 50750 kPa | 1477.56 ± 3.8 | –
333.15 K, 59590 kPa | 1483.54 ± 4 | –
338.15 K, 1420 kPa | – | 1153.5 ± 3.1
338.15 K, 3500 kPa | – | 1161.2 ± 3.1
338.15 K, 7000 kPa | – | 1173.8 ± 3.1
338.15 K, 10000 kPa | – | 1184.4 ± 3.1
338.15 K, 13500 kPa | – | 1196.6 ± 3.1
338.15 K, 17000 kPa | – | 1208.3 ± 3.1
338.15 K, 20000 kPa | – | 1218.2 ± 3.1
338.15 K, 30000 kPa | – | 1250.4 ± 3.2
338.15 K, 40000 kPa | – | 1280.7 ± 3.2
338.15 K, 50000 kPa | – | 1309.2 ± 3.2
338.15 K, 60000 kPa | – | 1336.7 ± 3.2
338.15 K, 70000 kPa | – | 1362.9 ± 3.2
338.15 K, 80000 kPa | – | 1388.1 ± 3.2
338.15 K, 90000 kPa | – | 1412.3 ± 3.2
338.15 K, 100000 kPa | – | 1435.8 ± 3.2
338.15 K, 112500 kPa | – | 1463.9 ± 3.2
338.15 K, 125000 kPa | – | 1491.1 ± 3.2
338.15 K, 137510 kPa | – | 1517 ± 3.2
338.15 K, 150000 kPa | – | 1541.4 ± 3.2
338.15 K, 162500 kPa | – | 1566 ± 3.2
338.15 K, 175000 kPa | – | 1589.5 ± 3.2
